Here are results for four substances from patent US12612599B2, “Compositions and methods for microglia replacement therapy” (Savanna Biotherapeutics, Inc., priority 2018, dated 2026).

The assay concerns bone marrow derived macrophages (BMDMs) expressing human CSF1R variants. Nature of the assay: In vitro survival assay of retrovirally transduced bone marrow derived macrophages expressing CSF1R variants under PLX3397. The class given is cell-based, mouse. The note with it: PLX3397 100 nM, 48 hours, CellTiter-Glo 2; compared to cells expressing WT CSF1R; FIG. 23.
Take “D796A: human CSF1R variant, SEQ ID NO: 12”: the “ratio between number of cells following treatment with CSF1R inhibitor (PLX-3397) + CSF1 and number of cells following complete deprivation of CSF1” value is reported as “higher ratio than cells expressing WT CSF1R”. To “G795A: human CSF1R variant, SEQ ID NO: 10” belongs “higher ratio than cells expressing WT CSF1R”. “M637L: human CSF1R variant, SEQ ID NO: 11”: the “ratio between number of cells following treatment with CSF1R inhibitor (PLX-3397) + CSF1 and number of cells following complete deprivation of CSF1” value is on record as “higher ratio than cells expressing WT CSF1R”. For “Y546F: human CSF1R variant, SEQ ID NO: 14” the value was “higher ratio than cells expressing WT CSF1R”.
